Read-outs that look alike come from different tables or passages of the source.
Legend:
[1] = tested on: HTT mRNA; experiment: RT-qPCR splicing assay, HTT canonical junction (CJ) and alternative junction (AJ) mRNA; assay type: cell-based, human; details: Homo sapiens; for AC50: increase in HTT alternative junction (AJ) mRNA, read-out: HTT AJ AC50
Protocol: (§1) The expression of a target mRNA was measured by detecting the formation of an exon-exon junction in the canonical transcript (CJ). A compound mediated exon-inclusion event was detected by observing an increase in formation of a new junction with an alternative exon (AJ). Real-time qPCR assays were used to detect these splicing switches and interrogate the potency of various compounds towards different target genes. A high-throughput real time quantitative PCR (RT-qPCR) assay was developed to measure these two isoforms of the mRNA (CJ and AJ) for exemplary genes, such as HTT, SMN2, and MYB, together with a control housekeeping gene, GAPDH or GUSB or PPIA, used for normalization. Briefly, the A673 or K562 cell line was treated with various compounds described herein (e.g., compounds of Formula (I)). After treatment, the levels of the HTT, MYB, or SMN2 mRNA targets were determined from each sample of cell lysate by cDNA synthesis followed by qPCR.
(§2) • Cells-to-CT 1-step kit: ThermoFisher A25602, Cells-to-CT lysis reagent: ThermoFisher 4391851C, TaqMan™ Fast Virus 1-Step Master Mix: ThermoFisher 4444436 • GAPDH: VIC-PL, ThermoFisher 4326317E (Assay: Hs99999905_m1)—used for K562/suspension cell lines • GUSB: VIC-PL, ThermoFisher 4326320E (Assay: Hs99999908_m1)—used for K562/suspension cell lines • PPIA: VIC-PL, ThermoFisher 4326316E (Assay: Hs99999904_m1)—used for A673/adherent cell lines
(§3) The A673 cell line was cultured in DMEM with 10% FBS. Cells were diluted with full growth media and plated in a 96-well plate (15,000 cells in 100 ul media per well). The plate was incubated at 37° C. with 5% CO2 for 24 hours to allow cells to adhere. An 11-point 3-fold serial dilution of the compounds was made in DMSO then diluted in media in an intermediate plate. Compounds were transferred from the intermediate plate to the cell plate with the top dose at a final concentration of 10 uM in the well. Final DMSO concentration was kept at or below 0.25%. The cell plate was returned to the incubator at 37° C. with 5% CO2 for an additional 24 hours.
(§4) The K562 cell line was cultured in IMDM with 10% FBS. For K562, cells were diluted with full growth media and plated in either a 96-well plate (50,000 cells in 50 uL media per well) or a 384-well plate (8,000-40,000 cells in 45 uL media per well). An 11-point 3-fold serial dilution of the compounds were made in DMSO then diluted in media in an intermediate plate. Compound was transferred from the intermediate plate to the cell plate with the top dose at a final concentration of 10 uM in the well. Final DMSO concentration was kept at or below 0.25%. Final volume was 100 uL for 96-well plate and 50 uL for 384-well plate. The cell plate was then placed in an incubator at 37° C. with 5% CO2 for 24 hours.
(§5) The cells were then gently washed with 50 uL-100 uL cold PBS before proceeding to addition of lysis buffer. 30 uL-50 uL of room temperature lysis buffer with DNAse I (and optionally RNAsin) was added to each well. Cells were shaken/mixed thoroughly at room temperature for 5-10 minutes for lysis to take place and then 3 uL-5 uL of room temperature stop solution was added and wells were shaken/mixed again. After 2-5 minutes, the cell lysate plate was transferred to ice for RT-qPCR reaction setup. The lysates could also be frozen at −80° C. for later use.
(§6) In some cases, a direct lysis buffer was used. An appropriate volume of 3× lysis buffer (10 mM Tris, 150 mM NaCl, 1.5%-2.5% Igepal and 0.1-1 U/uL RNAsin, pH 7.4) was directly added to either K562 or A673 cells in media and mixed by pipetting 3 times. The plates were then incubated at room temperature with shaking/rocking for 20-50 minutes to allow for lysis to take place. After this time, the cell lysate plate was transferred to ice to set up for the RT-qPCR reactions. The lysates could also be frozen at −80° C. for later use.

[2] = tested on: K562 (human chronic myelogenous leukemia) cells; experiment: Cell Titer Glo 2.0 cell viability assay; assay type: cell-based; details: Homo sapiens, K562, 72 h, K562 cells, 72 hours, Cell Titer Glo 2.0; read-out: K562 GI50
Protocol: Compounds described herein were screened for toxicity in K562 (human chronic myelogenous leukemia) cells using a Cell Titer Glo 2.0 assay.
Cells were plated at 500 cells/well (K562 cells) in 45 μL of IMDM supplemented with 1000 FBS in a 384-well opaque plate. Wells containing only medium were used as a blank control. Test compounds (e.g., compounds ofFormula (I), (II), (III), (IV), (V), (VI), (VII), (VIII), and (IX)) were first serially diluted in DMSO then diluted 1:100 with IMDM+10% FBS. The final concentration of DMSO was 0.1% in each well. The cells were incubated for 72 hours at 37° C. and 500 CO2 before assaying with Cell Titer Glo 2.0 reagent.

[3] = tested on: Target C; experiment: RT-qPCR splicing assay panel, Target C canonical junction (CJ) mRNA; assay type: cell-based, human; details: Homo sapiens
Protocol: as §1, §3, §4, §5, §6
(§7) To set up 10 uL RT-qPCR reactions, cell lysates were transferred to 384-well qPCR plates containing the master mix according to the table below. The plates were sealed, gently vortexed, and spun down before the run. The volumes were adjusted accordingly in some instances where the reaction was carried in 20 uL. The table below summarizes the components of the RT-qPCR reactions:
(§8) The RT-qPCR reaction was performed using a QuantStudio (ThermoFisher) under the following fast cycling conditions.

[4] = tested on: MYB mRNA; experiment: RT-qPCR splicing assay, MYB canonical junction (CJ) and alternative junction (AJ) mRNA; assay type: cell-based, human; details: Homo sapiens; for AC50: increase in MYB alternative junction (AJ) mRNA, read-out: MYB AJ AC50
Protocol: as §1, §2, §3, §4, §5, §6

[5] = tested on: SMN2 mRNA; experiment: RT-qPCR splicing assay, SMN2 canonical junction (CJ) mRNA; assay type: cell-based, human; details: Homo sapiens; Table 5 panel; canonical junction qPCR; compound concentration having 50% response in CJ decrease; read-out: SMN2 IC50 (decrease in CJ mRNA levels)
Protocol: as §1, §3, §4, §5, §6, §7, §8

[6] = decrease in HTT canonical junction (CJ) mRNA, RT-qPCR, read-out: HTT CJ IC50
[7] = canonical junction qPCR panel, Table 5, read-out: Target C (decrease in CJ mRNA levels, IC50)
[8] = canonical junction qPCR panel, Table 5, read-out: HTT (decrease in CJ mRNA levels, IC50)
[9] = canonical junction qPCR panel, Table 5, read-out: MYB (decrease in CJ mRNA levels, IC50)
[10] = decrease in MYB canonical junction (CJ) mRNA, RT-qPCR, read-out: MYB CJ IC50
[11] = Table 5 panel, canonical junction qPCR, compound concentration having 50% response in CJ decrease, read-out: HTT IC50 (decrease in CJ mRNA levels)

Compound | IC50 [1, 6] | GI50 [2] | IC50 [3, 7] | IC50 [1, 8] | IC50 [4, 9] | IC50 [4, 10] | IC50 ([3]; Table 5 panel, canonical junction qPCR, compound concentration having 50% response in CJ decrease, read-out: Target C IC50 (decrease in CJ mRNA levels)) | IC50 [1, 11] | IC50 [5] | IC50 ([4]; Table 5 panel, canonical junction qPCR, compound concentration having 50% response in CJ decrease, read-out: MYB IC50 (decrease in CJ mRNA levels)) | AC50 ([1]; RT-qPCR) | AC50 ([4]; RT-qPCR)
Cc1c(O)c(-c2nc(C)c3c(=O)n(C4C[C@H](C)N[C@@H](C)C4)ccc3n2)cc2cn(C)nc12 (some centres unmarked) [Compound 1516] | 1000 to 10000 nM | 100 to 1000 nM | > 10000 nM | 1000 to 10000 nM | 100 to 1000 nM | 100 to 1000 nM |  |  |  |  | 1000 to 10000 nM | 100 to 1000 nM
Cc1cn2nc(-c3ccc4c(=O)n(C5CCOCC5)ncc4c3)cc(C)c2n1 [Compound 275] |  |  |  |  |  |  | > 10000 nM | > 10000 nM |  |  |  | 
Cc1c(O)c(-c2nc(C)c3c(=O)n([C@H]4CCNC5(CC5)C4)ccc3n2)cc2cn(C)nc12 [Compound 1514, 6-[(7S)-4-azaspiro[2.5]octan-7-yl]-2-(6-hydroxy-2,7-dimethyl-indazol-5-yl)-4-methyl-pyrido[4,3-d]pyrimidin-5-one] | 1000 to 10000 nM | 100 to 1000 nM | 1000 to 10000 nM | > 10000 nM | 100 to 1000 nM | 100 to 1000 nM |  |  |  |  | > 10000 nM | 100 to 1000 nM
C[C@H]1C[C@@H](n2ccc3nc(-c4cc(F)c5nn(C)cc5c4)ccc3c2=O)CCN1 [Compound 1507] | 100 to 1000 nM | 100 to 1000 nM | 1000 to 10000 nM | 100 to 1000 nM | 100 to 1000 nM | 100 to 1000 nM |  |  |  |  | 100 to 1000 nM | 100 to 1000 nM

Second part, led by results:

IC50 [1, 6] | GI50 [2] | IC50 [3, 7] | IC50 [1, 8] | IC50 [4, 9] | IC50 [4, 10] | IC50 ([3]; Table 5 panel, canonical junction qPCR, compound concentration having 50% response in CJ decrease, read-out: Target C IC50 (decrease in CJ mRNA levels)) | IC50 [1, 11] | IC50 [5] | IC50 ([4]; Table 5 panel, canonical junction qPCR, compound concentration having 50% response in CJ decrease, read-out: MYB IC50 (decrease in CJ mRNA levels)) | Compound | AC50 ([1]; RT-qPCR) | AC50 ([4]; RT-qPCR)
> 10000 nM |  |  |  |  |  |  |  |  |  | Cc1cn2cc(-c3ccc4c(=O)n(C5CCNCC5)ncc4c3)nc2c(C)n1 [Compound 258] | 1000 to 10000 nM | 
100 to 1000 nM | 1000 to 10000 nM | 100 to 1000 nM | 100 to 1000 nM | 100 to 1000 nM | 100 to 1000 nM |  |  |  |  | Cc1cn2nc(-c3ccc4c(=O)n([C@@H]5CCNC6(CC6)C5)ccc4n3)cc(C)c2n1 [Compound 1505, 6-[(7R)-4-azaspiro[2.5]octan-7-yl]-2-(2,8-dimethylimidazo[1,2-b]pyridazin-6-yl)-1,6-naphthyridin-5-one] | 100 to 1000 nM | 100 to 1000 nM
100 to 1000 nM | 100 to 1000 nM | 100 to 1000 nM | 100 to 1000 nM | 100 to 1000 nM | 100 to 1000 nM |  |  |  |  | Cc1cn2cc(-c3ccc4c(=O)n([C@H]5CCNC6(CC6)C5)ccc4n3)cc(F)c2n1 [Compound 1511] | 100 to 1000 nM | 100 to 1000 nM
1000 to 10000 nM |  |  |  |  | 1000 to 10000 nM |  | 100 to 1000 nM | 100 to 1000 nM | 1000 to 10000 nM | Cc1cn2nc(-c3ccc4c(c3)CCN(C3CCNCC3)C4=O)cc(C)c2n1 [Compound 185] | 100 to 1000 nM | 1000 to 10000 nM
100 to 1000 nM | 100 to 1000 nM | 100 to 1000 nM | 100 to 1000 nM | < 100 nM | 100 to 1000 nM |  |  |  |  | Cc1c(O)c(-c2ccc3c(=O)n([C@@H]4CCNC5(CC5)C4)ccc3n2)cc2cn(C)nc12 [Compound 1509, 6-[(7R)-4-azaspiro[2.5]octan-7-yl]-2-(6-hydroxy-2,7-dimethyl-indazol-5-yl)-1,6-naphthyridin-5-one] | 100 to 1000 nM | < 100 nM

Reference: patent publication US20250332173A1, “COMPOUNDS AND METHODS FOR MODULATING NUCLEIC ACID SPLICING” (REMIX THERAPEUTICS INC., priority 2021, published 2025)
